{"source": "patent US20230025280A1", "about": "“PH RESPONSIVE COMPOSITIONS, FORMULATIONS, AND METHODS OF IMAGING A TUMOR” (ONCONANO MEDICINE, INC, priority 2019, published 2023)", "key": {"[1]": {"tested_on": "tumor positive surgical margins", "test": "Fluorescence detection of tumor positive surgical margins versus final histopathology", "assay_type": "in vivo, human", "details": "1.2 mg/kg; EC; per patient"}, "[2]": {"tested_on": "solid neoplasia", "test": "Tumor imaging in dogs with solid neoplasia", "assay_type": "in vivo, dog", "description": "Materials and methods: After evaluation and recruitment for the study, dog-patients underwent (A) pre-operation analysis to identify possible types of lesion, and (B) Compound 1 tracer was administrated at 0.5 to 2.0 mg/kg, 18-78 hours prior to surgery. During the surgery (C) intra-operative imaging was performed using a Hamamatsu PDE or custom NIR camera before and after tumor removal (or after limb amputations). Resected tissues were (D) imaged with a LI-COR Pearl Imaging station and tumor-to-normal-tissue ratios were calculated accordingly. The resected tissues were then (E) preserved for histopathology validation. Safety was assessed separately in terms of adverse effects through physical examinations, laboratory tests and the recording of adverse events from infusion through discharge from hospital.\nResults: A summary of the data from spayed or neutered dog patients that were recruited for the study is shown below (Table 16). Results from a total of seven dogs of different breeds, aged 4-12 years, body weights ranging from 20.9-59.5 kg, and with a range of tumors ware presented, including instances where more than one tumor was present. Doses studied thus far ranged from 0.5-2.0 mg/kg. […] Both acute and chronic adverse effects were monitored from the time of injection through discharge of the animals from the hospital and follow-up appointments (to remove sutures) and noted."}, "[3]": {"test": "pH-dependent activation of Compound 1 in human plasma"}, "[4]": {"tested_on": "histology-confirmed tumor and normal tissue", "test": "Postoperative tissue slice fluorescence imaging (LI-COR Pearl; MFI, CNR, TBR, ROC) correlated with histopathology", "assay_type": "in vivo, human", "details": "for Ex Vivo Tissue Slice CNR / Ex Vivo Tissue Slice TBR: per patient, LI-COR Pearl", "from_the_text": "Timing of postoperative tissue slice imaging was adapted to accommodate the differences in the SOC for specimen processing of the different tumor types. Briefly, BC specimens were sliced fresh on the day of surgery and then formalin fixed, other tumor types were sliced after formalin fixation of the whole resection specimen 1 to 3 days after surgery. Generally, the surgical specimen was serially sliced into ±0.5 cm thick tissue slices. White light photographs were made during and directly after slicing for orientation purposes. After slicing, fluorescence imaging on both sides of each tissue slice was performed in a light-tight environment (LI-COR PEARL® Trilogy system). BC slices were therefore imaged approximately 120 min after excision, other tumor types were sliced and imaged the subsequent day(s) after excision and formalin fixation.\nEach BLS underwent overnight formalin fixation in 4% paraformaldehyde/phosphate buffered saline. The pathologist then macroscopically sampled parts of BLS (FFPE embedding) for further analysis according to SOC and preparation of 4 μm slices for hematoxylin and eosin (H/E) staining to delineate tumor tissue for histopathological correlation. Additional FFPE blocks could be embedded based on fluorescence imaging of the BLS additional to the SOC examination by conventional macroscopic visual inspection of the pathologist. A standardized workflow was executed in order to cross-correlate final histopathology results with recorded fluorescence images of tissue slices of interest. FFPE blocks were scanned after 7 to 14 days using the Odyssey Flatbed Scanner (LI-COR Bioscience).\nAfter the SOC pathological procedure was performed (approximately 7-10 days for Phase 1a and 7-14 days for Phase 1b), H/E slices were reviewed and discussed with the dedicated board-certified pathologist for the respective tumor type.\nA correlation between HE slices and fluorescence images (i.e., bread loaf slice or BLS) were made using Adobe Illustrator and Fiji (ImageJ). After precisely and manually drawing the region of interest (ROI) containing tumor and background based on the histopathological outcome, a CNR was calculated for each LI-COR PEARL image of a separate BLS for each patient. The median CNR was calculated based on all available BLS containing tumor.\nCompound 1 fluorescence images were captured from the postoperative specimens (BLS specimens) prepared at each step of the standard pathology for the purposes of correlating Compound 1 fluorescence with histopathological finding of the tumor and the normal tissue. LI COR PEARL, a laboratory camera with capabilities to standardize imaging and fluorescence quantification, was used to compare fluorescence intensity across multiple specimens.\nIntraoperative fluorescence intensity cannot be standardized and compared between patients or dose levels due to the unique presentation of each surgical environment. Multiple variables such as camera angle, camera-tissue distance, tumor location, and coverage by other tissues or fat affect the absolute value of the fluorescence signal. To enable direct comparison of MFI across patients and doses, patient tissue slices were imaged with LI-COR Pearl, the standardizable close field camera, using the standard postoperative workflow for fluorescence."}}, "note": "Values joined by “and” are separate entries in the source; they are usually repeats but may differ in a detail not shown here. Identical values can stand only once. “Also recorded” adds a separate entry of the source.", "data": [{"substance": "PEO90-140-b-P(DBA60-150-r-ICG0-3-r-AMA0-3) [Compound 1]", "values": [{"measurement": "Surgical Margin by Fluorescence", "setting": "[1]", "value": "Negative"}, {"measurement": "Fluorescent signals in diseased tissues", "setting": "[2]; 7 dogs, 0.5-2.0 mg/kg, 24 or 72 hr before surgery", "value": "fluorescent signals were observed where expected for diseased tissues"}, {"measurement": "Detection of occult disease", "setting": "[2]; one dog-patient, metastatic popliteal lymph node", "value": "occult disease was identified; also recorded: identification of occult disease"}, {"measurement": "Fluorescence on adding increasing amounts of Compound 1", "setting": "[3]; human plasma with HCl", "value": "increase in fluorescence"}, {"measurement": "Fluorescence on adding increasing amounts of Compound 1", "setting": "[3]; human plasma, no acid", "value": "did not show any increase in fluorescence"}, {"measurement": "Ex Vivo Tissue Slice CNR", "setting": "[4]; 0.1 mg/kg, HNSCC", "value": "3.5 and 3.2 and 0.9"}, {"measurement": "Ex Vivo Tissue Slice TBR", "setting": "[4]; 0.1 mg/kg, HNSCC", "value": "4.5 (2×) and 1.9"}, {"measurement": "Ex Vivo Tissue Slice CNR", "setting": "[4]; 0.3 mg/kg, BC", "value": "7.0 and 14.1 and 3.2"}, {"measurement": "Ex Vivo Tissue Slice TBR", "setting": "[4]; 0.3 mg/kg, BC", "value": "4.5 and 27.0 and 4.2"}, {"measurement": "Ex Vivo Tissue Slice CNR", "setting": "[4]; 0.5 mg/kg, BC", "value": 6.4}, {"measurement": "Ex Vivo Tissue Slice TBR", "setting": "[4]; 0.5 mg/kg, BC", "value": 5.0}, {"measurement": "Ex Vivo Tissue Slice CNR", "setting": "[4]; 0.5 mg/kg, HNSCC", "value": "3.1 and 1.8"}, {"measurement": "Ex Vivo Tissue Slice TBR", "setting": "[4]; 0.5 mg/kg, HNSCC", "value": "3.9 and 2.2"}, {"measurement": "Ex Vivo Tissue Slice CNR", "setting": "[4]; 0.8 mg/kg, BC", "value": "5.7 and 9.2"}, {"measurement": "Ex Vivo Tissue Slice TBR", "setting": "[4]; 0.8 mg/kg, BC", "value": "8.0 and 11.9"}, {"measurement": "Ex Vivo Tissue Slice CNR", "setting": "[4]; 0.8 mg/kg, HNSCC", "value": 4.8}, {"measurement": "Ex Vivo Tissue Slice TBR", "setting": "[4]; 0.8 mg/kg, HNSCC", "value": 5.9}, {"measurement": "Ex Vivo Tissue Slice CNR", "setting": "[4]; 1.2 mg/kg, BC", "value": "3.9 and 10.5 and 7.6 and 3.4"}, {"measurement": "Ex Vivo Tissue Slice TBR", "setting": "[4]; 1.2 mg/kg, BC", "value": "4.8 and 14.2 and 12.0 and 4.2"}, {"measurement": "Ex Vivo Tissue Slice CNR", "setting": "[4]; 1.2 mg/kg, CRC", "value": 12.8}, {"measurement": "Ex Vivo Tissue Slice TBR", "setting": "[4]; 1.2 mg/kg, CRC", "value": 16.9}, {"measurement": "Ex Vivo Tissue Slice CNR", "setting": "[4]; 1.2 mg/kg, EC", "value": "2.9 and 2.1"}, {"measurement": "Ex Vivo Tissue Slice TBR", "setting": "[4]; 1.2 mg/kg, EC", "value": "3.4 and 3.2"}, {"measurement": "Ex Vivo Tissue Slice CNR", "setting": "[4]; 1.2 mg/kg, HNSCC", "value": "2.4 and 1.9 (2×) and 3.5 (2×) and 2.8 and 4.4"}, {"measurement": "Ex Vivo Tissue Slice TBR", "setting": "[4]; 1.2 mg/kg, HNSCC", "value": "2.9 and 2.2 and 5.4 and 3.7 and 2.5 and 6.5 and 5.2"}, {"measurement": "Patient tumor specimens with postoperative imaging feasibility", "setting": "[4]; Phase 1a, 0.1 to 1.2 mg/kg", "value": 15}, {"measurement": "Tumor MFI compared with non-tumor tissue", "setting": "[4]; all dose cohorts", "value": "significantly higher"}, {"measurement": "Median tumor-to-background ratio (TBR)", "setting": "[4]; all tissue slices (n=97 from 26 subjects), IQR 3.1", "value": 4.5}, {"measurement": "Postoperative fluorescence of tumors", "setting": "[4]; all tumor types and doses", "value": "fluoresced in tissue slices from all the patients and tumor types; also recorded: all tumors irrespective of tumor type or dose were fluorescent"}, {"measurement": "Tumor MFI in relation to dose", "setting": "[4]; postoperative tissue slices, 0.1 to 1.2 mg/kg", "value": "increased with dose"}, {"measurement": "ROC curve AUC", "setting": "[4]; tissue slices, 1.2 mg per kg dose cohort, n=59", "value": 0.9875}, {"measurement": "ROC curve area under the curve", "setting": "[4]; tissue slices, measurement level, P<0.0001", "value": 0.9726}, {"measurement": "TBR", "setting": "[4]; tissue slices, 1.2 mg/kg, IQR 3.0", "value": 4.5}]}]}
